Measurements published in PMC3747139 (PLoS ONE, 2013).

Legend:
[1] = test system: telomerase reverse transcriptase (TERT); assay: Western blot of telomerase expression in tumor tissues; type: in vivo, C57BL6/J mice; settings: tumor tissue of tumor-induced mice, 216 h of treatment
Experimental: Western blot analysis was carried out to study the expression of telomerase in ligand treated as well as untreated tissues of tumor-induced mice. Total proteins were extracted from the tumor tissues into solubilisation buffer (7 M urea, 2 M thiourea, 4% CHAPS, 18 mM Tris–HCl, 14 mM Trizma base, 2 tablets EDTA protease inhibitor, 0.2% Triton-X, 50 mM DTT) following homogenization and sonication. Extracted proteins were quantified against BSA standard using an Amido black assay method. 40 µg of total protein obtained from different time points (48 h, 72 h and 216 h) were electrophoresed on a 10% SDS-PAGE and transferred onto a PVDF membrane using wet-transfer method. Immunoblot analysis of the telomerase reverse transcriptase (TERT) expression was performed using anti-TERT antibody (Pierce, Thermo Scientific) as primary antibody and anti-rabbit HP conjugated secondary antibodies (Pierce, Thermo Scientific). The immuno- blots were scanned using the ECL detection method to estimate the telomerase expression levels in the tissues of tumor-induced mice. The endogenous β-actin expression level was considered as control.

[2] = test system: telomerase; set-up: method as in PMID 10741725; settings: cited from earlier work
[3] = test system: dsDNA (poly-dA-dT and poly-dT-dA); assay: SYBR Green melting study with dsDNA; type: binding; settings: 5 µM dsDNA, 1 µM ligand; dsDNA alone 24°C
Experimental: When quadruplex DNA melts to form ssDNA structure, SG fluorescence intensity gradually reduces as SG has no binding to ssDNA. Each time, 5 µM of HQF DNA [d(T2AG3)4)], 5 µM of dsDNA (prepared by mixing equal concentration of poly-dA-dT and poly-dT-dA), 5 µM ssDNA ( poly dT alone) and 1 µM of each ligand was incubated at 4°C for 16 h, and used for melting studies. […] Affinity, stoichiometry and thermodynamic parameters for quadruplex-ligand complex were studied with 60 µM of ligand and 10 µM of HQF DNA using Microcal VP-ITC (Northampton, MA, USA). Ligand addition to G-quadruplex DNA was made every 180 seconds. Titration experiments were performed thrice and blank correction was made each time to minimize error.

[4] = test system: NQF DNA; assay: Stop assay (inhibition of in vitro DNA synthesis) with NQF DNA; type: biochemical; settings: 5 µM NQF DNA
Experimental: The G-quadruplex structure forming region of QF oligonucleotide is shown in bold letters.
To the PCR reaction mixture (25 µl) containing 10 mM Tris-HCl, pH 8.3, with 50 mM KCl, 1.5 mM Mg(OAc)2, 5 µM of each oligonucleotide, 1 mM dNTPs, 5 units of Taq polymerase, L1, L2, L3 were added at various concentrations (50 µM, 100 µM, 150 µM, 200 µM), and PCR reactions were performed. PCR mixture without any ligand was considered as control. The primers were 5′ end-labelled with [γ-^32P] ATP using 1 µl of polynucleotide kinase and 5 µl of 10× kinase buffer and the contents were incubated at 37°C for 5 min. Stop assay was performed using an ABI thermal cycler. Initial denaturation was done at 94°C for 3 min, followed by 20 repeated cycles each having 94°C for 30 sec, 58°C for 30 sec, and 72°C for 30 sec. After PCR, 5 µl of the amplified product was loaded on a 12% non-denaturing polyacrylamide gel with 1×TBE. The in vitro DNA synthetic band intensity was measured using Bio Rad Gel Doc XR+system (USA). The band intensity of the PCR product obtained with no ligand was taken as control for all the quadruplex forming DNA samples (QF DNA). Percentage of DNA synthesis inhibition was calculated using equation 1, whereas, inhibition constant, Ki (using Cheng-Prusoff equation) for each ligand was calculated by using equation 2. [drawing 2] (1)

## Cc1cn([C@H]2C[C@H](N=[N+]=[N-])[C@@H](CO)O2)c(=O)[nH]c1=O [Ligand L1, 1-(4-azido 5-(hydroxylmethyl)tetrahydrofuran-2-yl)-5-methyl pyrimidi-ne-2,4(1H,3H)-dione, reference compound]
[1]
  percentage of reduction of telomerase expression: 80%
[2]
  concentration reported to inhibit telomerase: around 200 µM

## Cc1cn([C@H]2C[C@H](n3cc(-c4ccccc4)nn3)[C@@H](CO)O2)c(=O)[nH]c1=O [Ligand L2]
[1]
  percentage of reduction of telomerase expression: 88%

## Cc1cn([C@H]2C[C@H](n3cc(-c4ccc(Cl)cc4)nn3)[C@@H](CO)O2)c(=O)[nH]c1=O [Ligand L3, 1-(4-(4-(4-chlorophenly)-1H-1,2,3-triazole-1-yl)-5-(hydroxymethyl)tetrahydrofuran-2-yl)-5-methylpyrimidine-2,3(1H,3H)-dione]
[1]
  percentage of reduction of telomerase expression: 95%
[3]
  Tm of dsDNA with ligand: 25 °C
[4]
  inhibition of in vitro DNA synthesis with NQF DNA: around 33%
